Consider 17 molecules from article PMC7460603 (International Journal of Molecular Sciences, 2020).

Like-named read-outs stand apart in the source and are kept apart here.

One series deals with neuromuscular transition. The conditions noted are these: at pharmaceutically relevant concentrations; cited from earlier work.
For series [1], the target named is T1, electric eel acetylcholinesterase (eeAChE) (Electrophorus electricus, UniProt O42275). Kind of series: biochemical. The format is biochemical. Also noted: purchased Sigma, St. Louis, MO, USA. The conditions noted are these: for Ki: three substrate concentrations (0.125, 0.25, 0.5 mM). The method, then: (§1) Cholinesterase activities were measured by the Ellman method adapted for microtiter plates, as described in Ristovski et al.. Stock solutions of the prepared ruthenium compounds (1 mg/mL) or neostigmine bromide (Sigma-Aldrich, St. Louis, MO, USA) as a positive control were prepared in 100% ethanol and progressively diluted in 100 mM potassium phosphate buffer (pH 7.4) to a final volume of 50 µL. Then, 1 mM acetylthiocholine chloride and 0.5 mM 5,5′-dithiobis-2-nitrobenzoic acid were dissolved in the same buffer and added to the wells of the microtiter plates to the final volume of 150 μL. Electric eel acetylcholinesterase (eeAChE) or horse serum BChE (hsBuChE) (both Sigma, St. Louis, MO, USA) were dissolved in the same buffer to 0.0075 U/mL. Fifty μL of each of the cholinesterases was added to start the reactions, which were followed spectrophotometrically at 405 nm and 25 °C for 5 min using a kinetic microplate reader (Dynex Technologies, Chantilly, VA, USA). Blank reactions without the inhibitors were run in the presence of the appropriate dilution of ethanol. Every measurement was repeated at least three times. For determination of the inhibitory constants, the kinetics were monitored using three different final substrate concentrations (0.125, 0.25, 0.5 mM).
T1 sequence (O42275 24-633): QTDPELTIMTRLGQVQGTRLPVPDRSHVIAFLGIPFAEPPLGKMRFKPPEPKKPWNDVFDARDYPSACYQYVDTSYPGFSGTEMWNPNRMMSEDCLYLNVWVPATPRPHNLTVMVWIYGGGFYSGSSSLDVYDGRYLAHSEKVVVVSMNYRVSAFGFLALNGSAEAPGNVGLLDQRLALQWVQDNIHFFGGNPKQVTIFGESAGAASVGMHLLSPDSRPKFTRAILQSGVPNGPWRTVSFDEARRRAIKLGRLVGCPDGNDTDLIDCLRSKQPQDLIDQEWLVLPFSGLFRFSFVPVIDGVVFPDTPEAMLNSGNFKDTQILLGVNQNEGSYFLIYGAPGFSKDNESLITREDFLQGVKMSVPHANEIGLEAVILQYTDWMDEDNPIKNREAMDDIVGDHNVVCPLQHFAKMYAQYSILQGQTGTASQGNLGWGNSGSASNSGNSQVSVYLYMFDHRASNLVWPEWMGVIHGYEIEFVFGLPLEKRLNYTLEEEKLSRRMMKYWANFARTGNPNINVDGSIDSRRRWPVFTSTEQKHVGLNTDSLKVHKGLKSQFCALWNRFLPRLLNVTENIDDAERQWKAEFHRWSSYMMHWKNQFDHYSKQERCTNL

The target in series [2] is T2, horse serum butyrylcholinesterase (hsBuChE) (Equus caballus, UniProt P81908). Put plainly: biochemical. The following applies: for Ki: three substrate concentrations (0.125, 0.25, 0.5 mM). In kind it is biochemical. Also noted: purchased Sigma, St. Louis, MO, USA; host or cells: horse serum. The method, then: as §1
T2 sequence (P81908 whole entry): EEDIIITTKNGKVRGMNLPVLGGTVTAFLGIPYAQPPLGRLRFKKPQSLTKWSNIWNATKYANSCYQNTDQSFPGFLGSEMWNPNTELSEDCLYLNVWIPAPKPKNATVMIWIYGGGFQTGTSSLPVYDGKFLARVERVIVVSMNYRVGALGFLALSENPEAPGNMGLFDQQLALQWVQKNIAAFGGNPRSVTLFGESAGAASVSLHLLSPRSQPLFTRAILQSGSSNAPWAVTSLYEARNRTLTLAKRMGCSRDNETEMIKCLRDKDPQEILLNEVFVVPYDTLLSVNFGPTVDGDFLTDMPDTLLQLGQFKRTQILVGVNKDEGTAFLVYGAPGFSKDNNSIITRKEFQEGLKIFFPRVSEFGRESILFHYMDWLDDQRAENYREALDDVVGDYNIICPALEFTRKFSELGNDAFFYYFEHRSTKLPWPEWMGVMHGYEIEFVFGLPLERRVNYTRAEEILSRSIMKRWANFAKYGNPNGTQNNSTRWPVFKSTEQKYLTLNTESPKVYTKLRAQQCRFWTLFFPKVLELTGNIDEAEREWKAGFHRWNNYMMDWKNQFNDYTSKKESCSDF
The target in series [3] is T2, horse serum butyrylcholinesterase (hsBuChE). The conditions noted are these: read-out: hsBuChE IC50; previously reported; cited from earlier work.
Another series relates to human AChE (hAChE). The following applies: read-out: hAChE IC50; previously reported; cited from earlier work.
A further series relates to immunoglobulins G. The conditions noted are these: human serum; cited from earlier work.
For series [4] the following is noted: cited from earlier work.
A further series has as its system NHEK-1 cells. The following applies: non-cancer cells; cited from earlier work.
The subject of series [5] is glutathione-S-transferase. The following applies: cited from earlier work.
The next series concerns human serum albumin. The following applies: cited from earlier work.
Series [6] addresses T1, electric eel acetylcholinesterase (eeAChE). The conditions noted are these: read-out: eeAChE IC50; previously reported; cited from earlier work.
The next series concerns HUVEC cells. The conditions noted are these: non-cancer cells; cited from earlier work.
The conditions of series [7]: phosphate buffer solution, cultural media RPMI and FP-RPMI, plasma; cited from earlier work.
The nature of series [8]: ESI-MS stability in solution. The conditions noted are these: positive ion mode, direct infusion; immediately before measurement and after three days.
The nature of series [9]: 1H NMR stability in aqueous media. The method, then:
All assays were carried out immediately after the solution preparation.

The mark [10] stands for this setting: concentration inducing 50% inhibition of enzyme activity, mean ± SEM of three independent measurements, / = no activity, read-out: eeAChE IC50.
[11] abbreviates: concentration inducing 50% inhibition of enzyme activity, mean ± SEM of three independent measurements, / = no activity, read-out: hsBuChE IC50.
[12] abbreviates: read-out: eeAChE IC50, concentration inducing 50% inhibition of enzyme activity, mean ± SEM of three independent measurements, / = no activity.
The mark [13] stands for this setting: read-out: hsBuChE IC50, concentration inducing 50% inhibition of enzyme activity, mean ± SEM of three independent measurements, / = no activity.

The term IC50 denotes the midpoint of a concentration-inhibition curve. As usually defined, the Ki is the equilibrium dissociation constant of an inhibitor or competing ligand from its target. Regarding `Cc1ccc(C(C)C)cc1.[Cl][Ru+].[O-]n1ccccc1=S` [Compound 1a], in the series with neuromuscular transition, the “physiological response on the neuromuscular transition” value is “did not express any unwanted physiological response”. For the same molecule, the half-inhibitory concentration (IC50) in [1] (setting [10]) was 7.8 ± 0.8 µM; in [2] (setting [11]), 2.3 ± 0.1 µM; in [3], 7.52 µM; in the series on human AChE (hAChE), 25.1 µM; in series [6], 5.01 µM. The Ki came out at 15.1 µM in series [1] and 0.5 µM in series [2]. In the series with immunoglobulins G, the “fraction interacting with immunoglobulins G” value was 5%. Further, in [4], the “stability in D2O solution containing NaCl” value was “confirmed the stability”. In series [4], the “stability in DMSO-d6/D2O (1H NMR)” value is “stable”. In the series on NHEK-1 cells, the “cytotoxicity against NHEK-1 cells” value is reported as “no cytotoxicity”. Besides, in [5], the “inhibition of glutathione-S-transferase” value is “inhibited”. In the series on human serum albumin, the “fraction interacting with human serum albumin” value is on record as 70%. Besides, in the series on human serum albumin, the fraction remaining unbound was 25%. The “cytotoxicity against HUVEC cells” value with HUVEC cells was “no cytotoxicity”.

Take `Cc1ccc(C(C)C)cc1.Cc1cccn([O-])c1=S.[Cl-].[Ru+2]` [Compound 1b]: the IC50 in [1] (setting [10]) turned out to be 10.5 ± 0.7 µM; in [2] (setting [11]) it was 1.2 ± 0.02 µM. In addition, the inhibition constant Ki in [1] worked out at 9.7 µM; in series [2] it was 0.4 µM. In [7], the “stability in aqueous media (UV-Vis)” value is reported as “stable”. For the same molecule, in series [8], the “stability in aqueous solution (ESI-MS, [M − Cl]+ ion)” value is on record as “same spectrum”.

As to `Cc1ccc(C(C)C)cc1.Cc1ccn([O-])c(=S)c1.[Cl-].[Ru+2]` [Compound 1c], the figures for the IC50 in series [1] (setting [10]) and in [2] (setting [11]) were 9.5 ± 1.1 µM and 2.7 ± 0.8 µM, respectively. For the same molecule, the values for the inhibition constant (Ki) in series [1] and in series [2] were 8.5 µM and 0.9 µM, respectively.

As to `Cc1ccc(=S)n([O-])c1.Cc1ccc(C(C)C)cc1.[Cl-].[Ru+2]` [Compound 1d], the IC50 in series [1] (setting [10]) turned out to be 6.6 ± 0.5 µM; in [2] (setting [11]), 1.9 ± 0.4 µM. For the same molecule, the Ki was determined as 9.7 µM in [1] and 0.4 µM in series [2].

As to `Cc1ccc(C(C)C)cc1.Cc1cccc(=S)n1[O-].[Cl-].[Ru+2]` [Compound 1e], the figures for the IC50 in series [1] (setting [10]) and in series [2] (setting [11]) were 5.1 ± 0.4 µM and 0.7 ± 0.1 µM, respectively. For the same molecule, the inhibition constant (Ki) amounted to 4.9 µM in series [1] and 3.4 µM in series [2]. Further, the “stability under enzymatic assay conditions (1H NMR)” value in series [9] (6.25% EtOH-d6/D2O, 80.2 mM K2HPO4 and 19.8 mM KH2PO4, immediately and after one hour) is recorded as “remain stable”. Moreover, the “stability in D2O containing 140 mM NaCl (1H NMR)” value in series [9] (after one day) is recorded as “negligible changes”. Further, the “stability in D2O (1H NMR)” value in series [9] (immediately and after three days) was “remain the main present species”.

Turning to `Cc1ccc(C(C)C)cc1.[Cl][Ru+].[O-]n1ccc2ccccc2c1=S` [Compound 1f, [(η^6-p-Cymene)Ru(2-hydroxyisoquinoline-1-(2H)-thionato)Cl]], the results for the half-inhibitory concentration (IC50) in series [1] (setting [10]) and in series [2] (setting [11]) were 8.1 ± 0.5 µM and 1.3 ± 0.1 µM, respectively. For the same molecule, the results for the Ki in [1] and in series [2] were 12.3 µM and 0.4 µM, respectively.

Regarding `CN(C)C(=O)Oc1cccc([N+](C)(C)C)c1` [Neostigmine bromide, reference compound], the IC50 in series [1] was determined as 4.3 ± 0.8 µM; in series [2] it was 37.3 ± 4.2 µM.

On to `On1ccccc1=S` [a, 1-hydroxypyridine-2(1H)-thione], for which the IC50 in series [1] (setting [12]) and in series [2] (setting [13]) was above 100 µM in each case.

Take `Cc1cccn(O)c1=S` [b]: the IC50 in series [1] (setting [12]) and in [2] (setting [13]) was above 100 µM in each case.

Take `Cc1ccn(O)c(=S)c1` [c]: the IC50 in series [1] (read-out: eeAChE IC50) and in series [2] (read-out: hsBuChE IC50) was above 100 µM in each case.

With `Cc1ccc(=S)n(O)c1` [d], the half-maximal inhibitory concentration (IC50) in series [1] (setting [12]) and in series [2] (setting [13]) was above 100 µM throughout.

Consider `Cc1cccc(=S)n1O` [e], for which the half-inhibitory concentration (IC50) in [1] (setting [12]) and in [2] was above 100 µM each time.

As to `On1ccc2ccccc2c1=S` [f, 2-Hydroxyisoquinoline-1-(2H)-thione], the IC50 in [1] (setting [12]) and in series [2] (setting [13]) was above 100 µM each time.

Take `On1c(=S)ccc2ccccc21` [g, 1-Hydroxyquinoline-2-(1H)-thione]: the half-inhibitory concentration (IC50) in series [1] (setting [10]) and in series [2] (setting [11]) was above 100 µM each time.

With `On1cc2ccccc2cc1=S` [h, 2-Hydroxyisoquinoline-3-(2H)-thione], the “activity against eeAChE (in words)” value in series [1] is recorded as “poorly active”. Further, the IC50 is above 100 µM in series [1] (setting [10]) and 53 µM in series [2] (setting [11]). The “activity against hsBuChE (in words)” value in series [2] is reported as “poorly active”.

Regarding “[(η^6-p-Cymene)Ru(1-hydroxyquinoline-2-(1H)-thionato)Cl] [Compound 1g]”, the 50% inhibitory concentration (IC50) worked out at 4.9 ± 0.1 µM in series [1] (setting [10]) and 0.2 ± 0.05 µM in series [2] (setting [11]). Also, the Ki in series [1] was determined as 5.6 µM; in series [2] it was 0.2 µM.

As for “[(η^6-p-Cymene)Ru(2-hydroxyisoquinoline-3-(2H)-thionato)Cl] [Compound 1h]”, the figures for the IC50 in [1] (setting [10]) and in [2] (setting [11]) were 14.3 ± 2 µM and 0.7 ± 0.1 µM, respectively. Also, the Ki was 20.1 µM in series [1] and 0.2 µM in [2].
